According to article PMC12216609, “Inhibitors of eIF1A-ribosome interaction unveil uORF-dependent regulation of translation initiation and antitumor and antiviral effects” (The EMBO Journal, 2025):
“And” between values parts separate entries of the source, which are not always exact repeats. Equal values may be shown once.

How the values were obtained:
[1] = biological target: T1, eIF1A-RPS10 interaction (Homo sapiens, UniProt P46783+P47813); test: Split-Renilla luciferase eIF1A-RPS10 interaction screen, dose-response; format: biochemical; conditions: Appendix Table S1; read-out: IC50 from the split RL screen
T1 construct: made in house; host or cells: E. coli BL21 (PRSFduet); unpurified lysate supernatant
T1 sequence (P47813 whole entry, one chain of several): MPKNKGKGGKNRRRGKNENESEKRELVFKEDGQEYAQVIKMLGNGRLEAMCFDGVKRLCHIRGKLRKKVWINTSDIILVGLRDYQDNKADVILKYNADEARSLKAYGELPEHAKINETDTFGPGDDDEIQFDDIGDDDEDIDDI
Experimental: While knockdown (KD) studies of eIF1A provided valuable insights into its role in mammalian cell translation (Sehrawat et al, [2019]), this approach presents several limitations. First, it fails to elucidate the functional significance of the opposing functions of eIF1A N- and C-terminal tails with respect to scanning and start codon fidelity. Second, the extended duration required for achieving efficient knockdown, 48–72 h, impairs our ability to differentiate between direct and indirect effects. To overcome these constraints, we set out to develop small-molecule inhibitors targeting eIF1A. Guided by structural and biochemical studies showing eIF1A binding to the small ribosomal subunit at the A-site and interacting directly with RPS10 through its N-terminal tail (Haimov et al, [2017]; Passmore et al, [2007]; Sehrawat et al, [2019]), our approach focused on disrupting the interaction between eIF1A and RPS10. […] The interaction between eIF1A and RPS10 brings the two parts together, leading to the reconstitution of the enzymatic activity (Haimov et al, [2017]). In this system, the spatial arrangement of the two RL parts is critical for the enzymatic activity, making it sensitive not only to direct interference with the interacting proteins but also to changes in the conformation of the fused proteins. In the eIF1A-RPS10 split-RL pair, the C-terminus of eIF1A is fused to N-RL (Fig. 1A), in order to maintain the NTT accessible to RPS10 binding. This pair was cloned and expressed in bacteria as recombinant proteins and used to screen a library of ~50,000 small molecules from diverse sources (Ashkenazi et al, [2017]).
eIF1A-ΔC-Renilla and RPS10-ΔN-Renilla were transformed into BL21 E. coli by heat shock transformation. A bacterial starter of 5 ml LB was incubated overnight at 37 °C and transferred into 1 L LB for incubation at 37 °C until OD ~ 0.5–0.7. Next, protein expression was induced with 0.5 mM IPTG, and bacterial cells were incubated overnight at 16 °C. Bacterial cell pellet was collected after centrifugation (3000 RPM, 15 min), resuspended in 20 ml TKE buffer (Tris 10 mM, KCl 100 mM, EDTA 0.1 mM), sonicated (bath sonicator, 24 cycles of 30 s) and centrifuged again (15000 RPM, 30 min). Supernatants were collected, analyzed for RL activity, and then used for high throughput drug screen (HTS) at the Weizmann G-INCPM HTS unit as described (Ashkenazi et al, [2017]). In addition to the standard controls of this protocol, the two parts of the split RL, without eIF1A or RPS10, were tested as controls. Selected compounds were purchased from Sigma-Aldrich and Enamine. Compound powders were resuspended in DMSO for a final concentration of 10 mM and stored at −20 °C.

[2] = system: CUG/GUG vs AUG start codon luciferase reporters in HEK293T cells; test: Near-cognate AUG starting codon fidelity reporter assay (GUG, CUG vs AUG); format: cell-based; conditions: for GUG vs AUG data (%) / GUG vs AUG (%) Average: compound at 20uM; for GUG vs AUG data (%): individual repeat; for GUG vs AUG (%) Average: summary average of repeats, DMSO control average […]
Experimental: We next considered the importance of eIF1A in controlling start codon fidelity in yeast and mammalian cells (Martin-Marcos et al, [2011]; Martin-Marcos et al, [2017]; Sehrawat et al, [2019]; She et al, [2023]) and tested how inhibition of eIF1A by 1Ais affects the initiation from near-cognate AUG. The effect of 1Ais was analyzed using firefly luciferase reporters bearing either AUG (control), CUG, or GUG as the exclusive translation initiation sites. Co-transfected GFP reporter served as an internal control for transfection efficiency.
For the near-cognate AUG Starting codon fidelity reporter assay, HEK293T cells were transfected with 100 ng of the previously described luciferase reporter constructs driven either by AUG, CUG, and GUG (Tang et al, [2017]) together with GFP expressing plasmid (20 ng) as normalizing control. Luciferase and GFP levels were determined as described above.
Appendix Figure S1: (A) HEK293T cells were transfected with Luciferase reporter genes with either CUG or AUG as their exclusive starting codon. 6 hours after transfection, cells were exposed to 1Ais, and the luminescence from all constructs was measured after overnight incubation. Bars represent the ratio between luminescence from the AUG starting codon and CUG after normalization with co-transfected GFP; Error bars represent SEM, * denotes p<0.05 (T-test comparing to DMSO control), n=≥4 independent biological replicates.

[3] = system: cap-proximal AUG GFP reporter in HEK293T cells; format: cell-based; conditions: GFP WB densitometry; 20 µM overnight; dmso 0.965946
Description: Translation from an AUG preceded by a very short 5'UTR (less than 30 nt) is usually inefficient and frequently bypassed, resulting in initiation from a downstream AUG, a phenomenon known as leaky scanning. […] To examine the impact of 1Ais on short 5'UTR initiation, we used a GFP reporter gene containing an AUG located 16 nt downstream from the 5' end followed by a second in-frame downstream AUG (Fig. 1F; Appendix Fig. S1B). Cells were transfected with this GFP reporter gene followed by exposure to DMSO (vehicle) and 1Ais. Initiations from upstream (US) or downstream (DS) AUGs were determined by western blot (WB) with anti-GFP antibodies and the ratio between the US and DS AUG was determined.
For the analysis of translation from very short 5'UTR and Leaky scanning, HEK293T cells were transfected with a GFP (20 ng/well) reporter gene driven by a cap-proximal and downstream AUGs (Elfakess et al, [2011]) together with a luciferase reporter gene (100 ng/well) as normalizing control and treated with 20 µM of 1Ais as described above. GFP levels were determined by Western blot (WB) (GFP antibody, Abcam #ab290) and quantified by densitometry (ImageJ) and normalized to the measured luciferase activity.
HEK293T cells were transfected with the GFP reporter gene schematically shown on the top. The first
AUG is […] from the 5’ end and the downstream AUG is in the same frame. Six hours after transfection, cells were treated with 1Ais. After overnight exposure to 1Ais, GFP expression was analyzed by WB using anti -GFP antibodies.
US/DS ratio was determined by densitometry and represents the long protein expression (upstream AUG, US) vs the […]
biological replicates. (C-D) Analysis of reporter genes mRNA levels after 1Ais treatment.

[4] = system: IRF7 5'UTR firefly luciferase reporter in HEK293T cells; conditions: for LONG (summary - All), normalized to DMSO: Long reporter; for LONG (summary - All), normalized to DMSO / SHORT (summary - All), normalized to DMSO / average ( long vs short ratio): 20 µM; for LONG (summary - All), normalized to DMSO / SHORT (summary - All), normalized to DMSO: individual replicates, outliers excluded, DMSO = 1; for SHORT (summary - All), normalized to DMSO: Short reporter; for average ( long vs short ratio): summary - All;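 on all read-outs here: luciferase signal corrected by a co-transfected GFP reporter for transfection efficiency, read after overnight compound exposure, with Long and Short reporters differing in 5'UTR length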
[5] = system: uORF-bearing 5'UTR firefly reporters in HEK293T cells; test: uORF reinitiation / leaky scanning firefly reporters
Description: (M) The reference and uORF-bearing reporters were transfected to HEK293T cells together with RL, which served to normalize translation efficiency. The reporter activities are represented as firefly vs RL; n ≥3 independent biological replicates, error bars represent SEM. *P < 0.05, **P < 0.01, Student t test. (N) Firefly Reporters (J) were transfected to HEK293T cells together with normalizing RL. […] Results are represented as firefly vs. RL normalized to DMSO in each biological replicate; n = 4, error bars represent SEM. *P < 0.05, **P < 0.01, Student t test.
In the first and second, we inserted an out-of-frame uAUG 46 or 95 nucleotides before the main ORF, respectively, followed by a downstream stop codon generating an uORF of 10 amino acids. In these constructs, the translation from the main ORF could be either by reinitiation or leaky scanning. In the third construct, this out of frame uAUG lacks a stop codon, causing initiation from the main ORF to exclusively occur via leaky scanning (Fig. 4L). These reporters were transfected into HEK293T cells together with RL luciferase reporter for normalizing transfection efficiency. […] We next examined these reporters in the presence of 1Ais.

| Compound | IC50 [1] | GUG vs AUG data (%) [2] | GUG vs AUG (%) Average [2] | US/DS ratio, average [3] | LONG (summary - All), normalized to DMSO [4] | SHORT (summary - All), normalized to DMSO [4] | Long 5'UTR reporter luciferase activity, normalized to DMSO (=1), single replicates ([4]; compound at 20 µM, left data block (Long), source data of Fig 1C) | average ( long vs short ratio) [4] | CUG vs AUG (%) ([2]; CUG start codon reporter relative to AUG reporter (AUG = 100), compound at 20uM (summary head), single-experiment calculation) | GUG vs AUG (%) ([2]; GUG start codon reporter relative to AUG reporter (AUG = 100), compound at 20uM (summary head), single-experiment calculation) | firefly/Renilla normalized to DMSO, minus46 reporter ([5]; 95nt from uORF to main ORF experiment summary, experiment 240919, reporter minus46, DMSO = 1) | firefly/Renilla normalized to DMSO, minus 95nt reporter ([5]; 95nt from uORF to main ORF experiment summary, experiment 240919, reporter minus 95nt, DMSO = 1) | firefly/Renilla normalized to DMSO, ref reporter ([5]; 95nt from uORF to main ORF experiment summary, experiment 240919, reporter ref, DMSO = 1) | 95nt from uORF to main ORF experiment, minus46, average (DMSO = 1) ([5]; minus46 reporter, average) | 95nt from uORF to main ORF experiment, minus 95nt, average (DMSO = 1) ([5]; minus 95nt reporter, average) | 95nt from uORF to main ORF experiment, ref, average (DMSO = 1) ([5]; ref reporter, average) |
| --- | --- | --- | --- | --- | --- | --- | --- | --- | --- | --- | --- | --- | --- | --- | --- | --- |
| c1csc(-c2nc(NCc3nnc4ccccn34)c3ccccc3n2)c1 [1Ai-2136] | 29 µM | 1.58% and 2.63% and 2.62% and 2.27% | 2.27% | 0.8866 | 0.43 and 0.72 and 0.55 and 0.54 | 0.63 and 0.25 and 0.98 and 0.99 and 0.71 and 0.58 | 0.43 and 1.0233 and 1.053 and 0.724 and 0.552 and 0.5382 | 0.813 | – | – | – | – | – | – | – | – |
| NS(=O)(=O)c1cccc(-c2ccc(C3Nc4ccccc4-c4nc5ccccc5n43)o2)c1 (centres unmarked) [1Ai-0050] | 26 µM | 2.02% and 1.27% and 1.28% and 1.15% | 1.43% | 1.064 | 1.25 and 0.94 and 0.54 and 1.63 | 0.72 and 0.91 | – | 1.337 | – | – | – | – | – | – | – | – |
| CNc1nc(-c2cc(C)n(C)c2C)cs1 [compound 153] | – | – | – | – | – | – | – | – | 5.937% | 1.586% | – | – | – | – | – | – |
| O=C(COc1ccccc1[N+](=O)[O-])NCc1ccc(-c2ccc(Br)cc2)o1 [1A-4700] | – | – | – | – | – | – | – | – | – | – | 0.3368 and 0.3707 | 1.123 and 1.106 | 0.8256 and 0.6094 | 0.3537 | 1.115 | 0.7175 |
